The values below are quoted from earlier work in patent US20130059872A1, “POLYMORPHS OF ALOGLIPTIN BENZOATE” (MAPI PHARMA LIMITED, priority 2010, published 2013).

Each structure is given as a SMILES string.

For this data set the following is noted: DSC data according to WO 2007/035372; recrystallization at 132° C., melt onset at 183° C.

On to `Cn1c(=O)cc(N2CCC[C@@H](N)C2)n(Cc2ccccc2C#N)c1=O` [amorphous form 1 of WO 2007/035372, alogliptin benzoate], for which the “solid-state stability of the amorphous phase on heating” value is “crystallized to crystalline form A during heating”.
